According to patent US12522597B2, “Methods and compositions for modulating splicing” (Skyhawk Therapeutics, Inc., priority 2019, dated 2026):

Columns and labels:
mHTT protein = mHTT protein assay (2B7-MW1, Mesoscale Discovery); assay type: cell-based, human; details: GM04724 (CAG 70/20) Huntington's disease patient lymphoblast cells, 48 hours, 2B7-MW1 MSD; read-out: HTT Potency - Protein EC50 mHTT (average)
How it was run: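 mHTT levels were read with the 2B7-MW1 antibody pair (N17 and polyQ epitopes) on MSD after 48 h dosing, 10 μM–0.6 nM. Cells were GM04724 HD lymphoblasts (CAG 70/20). A replica plate was read by CTG for cell viability.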

[1] = system: MDR1-MDCK cell monolayers; test: MDCK-MDR1 permeability assay (BBB penetration potential); assay type: in vitro ADME; details: dog, MDCK-MDR1, 120 min, 5 μM, pH 7.4
Experimental: (§1) Each determination is performed in duplicate. […] Analytical conditions are outlined below.

MDR1 = test: as above; assay type: in vitro ADME; details: dog; for efflux ratio at 120 min, 5 μM: MDCK-MDR1, pH 7.4, MDCK-MDR1: Efflux; for Papp A→B at 120 min, 5 μM: MDCK-MDR1, pH 7.4, MDCK-MDR1: Papp A-B; for Papp B→A at 120 min, 5 μM: MDCK-MDR1, pH 7.4, MDCK-MDR1: Papp B-A
Experimental: as §1

SMILES	EC50 (mHTT protein) [nM]	MDCK-MDR1: % Recov A-B [1] [%]	MDCK-MDR1: % Recov B-A [1] [%]	efflux ratio at 120 min, 5 μM (MDR1)	Papp A→B at 120 min, 5 μM (MDR1) [×10⁻⁶ cm/s]	Papp B→A at 120 min, 5 μM (MDR1) [×10⁻⁶ cm/s]
CNC(=O)c1ccc2cc(-c3ccc(O[C@H]4C[C@@H]5CCC[C@@H](N5)[C@H]4F)nn3)c(O)cc2n1 (single isomer, unassigned) [136-ENT1]	0.01 to 15	88	101	28	2.27	62.3
Cc1cnc(-c2ccc(-c3ccc(O[C@H]4C[C@@H]5CCC[C@@H](N5)[C@H]4F)nn3)c(O)c2)cn1 (single isomer, unassigned) [78-ENT2]	101 to 500	56	83	4	7.09	30
Oc1cc2ccncc2cc1-c1ccc(O[C@H]2C[C@@H]3CCC[C@@H](N3)[C@H]2F)nn1 (single isomer, unassigned) [81-ENT2]	501 to 10000	69	81	3	9.23	26.4
Cn1cc(-c2ccc(-c3ccc(O[C@H]4C[C@@H]5COC[C@@H](N5)[C@H]4F)nn3)c(O)c2)cn1 (single isomer, unassigned) [124-ENT2]	501 to 10000	86	89	3	16.9	43.5
O=c1cc(-c2ccc(-c3ccc(O[C@H]4C[C@@H]5CCC[C@@H](N5)[C@H]4F)nn3)c(O)c2)ccn1CF (single isomer, unassigned) [106-ENT2]	51 to 100	79	80	39	1.45	56.7
C[C@@]12CC[C@@](C)(N1)[C@@H](F)[C@@H](Oc1ccc(-c3ccc(C#N)cc3O)nn1)C2 (single isomer, unassigned) [152-ENT2]	501 to 10000	92	100	5	10	53
Cn1cc(-c2cc(O)c(-c3ccc(O[C@H]4C[C@@H]5CCC(N5)[C@H]4F)nn3)cn2)cn1 (single isomer, unassigned) [63-ENT2]	501 to 10000	96	107	38	0.26	9.6
Oc1cc(-c2cnn3ccccc23)ccc1-c1ccc(O[C@H]2C[C@@H]3CCC[C@@H](N3)[C@H]2F)nn1 (single isomer, unassigned) [91-ENT2]	501 to 10000	30	48	2	4.4	10.5
Oc1cc(-c2ccc3nccn3c2)ccc1-c1ccc(O[C@H]2C[C@@H]3CCC[C@@H](N3)[C@H]2F)nn1 (single isomer, unassigned) [84-ENT2]	16 to 50	43	73	14	1.63	22.8
O=c1cc(-c2ccc(-c3ccc(O[C@@H]4C[C@H]5CCC[C@H](N5)[C@@H]4F)nn3)c(O)c2)ccn1CF (single isomer, unassigned) [106-ENT1]	101 to 500	102	90	48	1.07	51
Oc1cc(-c2ccn3cnnc3c2)ccc1-c1ccc(O[C@H]2C[C@@H]3CCC[C@@H](N3)[C@H]2F)nn1 (single isomer, unassigned) [86-ENT2]	101 to 500	75	74	48	0.42	20.3
Cn1ccc(=O)c2cc(O)c(-c3ccc(O[C@H]4C[C@]5(C)CCC[C@@](C)(N5)[C@H]4F)nn3)cc21 (single isomer, unassigned) [132-ENT1]	101 to 500	90	95	142	0.1	14.7
Cn1ccc(=O)c2cc(-c3ccc(O[C@@H]4C[C@@]5(C)CCC[C@](C)(N5)[C@@H]4F)nn3)c(O)cc21 (single isomer, unassigned) [131-ENT2]	501 to 10000	91	96	56	0.79	44.6
Oc1cc(-c2ccc3nccn3c2)ccc1-c1ccc(O[C@@H]2C[C@H]3CCC[C@H](N3)[C@@H]2F)nn1 (single isomer, unassigned) [84-ENT1]	16 to 50	44	72	11	1.56	17
Oc1cc(-c2ccnnc2)ccc1-c1ccc(O[C@@H]2C[C@H]3CCC[C@H](N3)[C@@H]2F)nn1 (single isomer, unassigned) [87-ENT1]	101 to 500	92	100	20	2.75	55.8
Cn1cc(-c2ccc(-c3ccc(O[C@@H]4C[C@@H]5CCC[C@@H](N5)[C@@H]4F)nn3)c(O)c2)cn1 (single isomer, unassigned) [122-ENT2]	501 to 10000	60	76	6	6.08	38.4
Cc1nc(-c2ccc(-c3ccc(O[C@H]4C[C@@H]5CCC[C@@H](N5)[C@H]4F)nn3)c(O)c2)co1 (single isomer, unassigned) [92-ENT2]	101 to 500	72	89	9	6.04	54.6
N#Cc1ccc(-c2ccc(O[C@H]3C[C@@H]4CC[C@@H](N4)[C@H]3F)nn2)c(O)c1 (single isomer, unassigned) [111-ENT2]	501 to 10000	92	96	4	14.4	58.7
Cc1ncn(-c2ccc(-c3ccc(O[C@@H]4C[C@H]5CCC[C@H](N5)[C@@H]4F)nn3)c(O)c2)n1 (single isomer, unassigned) [70-ENT1]	101 to 500	93	99	7	6.62	44.6
Cc1cc(-c2ccc(-c3ccc(O[C@H]4C[C@@H]5CCC[C@@H](N5)[C@H]4F)nn3)c(O)c2)cs1 (single isomer, unassigned) [101-ENT2]	16 to 50	20	53	1	0.92	0.55
Oc1cc(-n2cccn2)ccc1-c1ccc(O[C@@H]2C[C@H]3CC[C@H](N3)[C@@H]2F)nn1 (single isomer, unassigned) [35-ENT1]	101 to 500	77	87	4	8.31	32.8
Cc1ccc(-c2ccc(-c3ccc(O[C@@H]4C[C@H]5CCC[C@H](N5)[C@@H]4F)nn3)c(O)c2)cn1 (single isomer, unassigned) [67-ENT1]	101 to 500	44	62	7	4.42	29.8
Oc1cc(-c2cc[nH]n2)ccc1-c1ccc(O[C@@H]2C[C@H]3CCC[C@H](N3)[C@@H]2F)nn1 (single isomer, unassigned) [66-ENT1]	51 to 100	79	80	11	0.93	10.1
Oc1cc2cccnc2cc1-c1ccc(O[C@H]2C[C@@H]3CCC[C@@H](N3)[C@H]2F)nn1 (single isomer, unassigned) [105-ENT2]	101 to 500	91	70	6	6.58	37.2
Cn1cc(-c2ccc(-c3ccc(O[C@H]4C[C@]5(C)CC[C@@](C)(N5)[C@H]4F)nn3)c(O)c2)cn1 (single isomer, unassigned) [150-ENT1]	51 to 100	77	85	4	7.55	27.9
Cn1cnc(-c2ccc(-c3ccc(O[C@@H]4C[C@H]5CCC[C@H](N5)[C@@H]4F)nn3)c(O)c2)cc1=O (single isomer, unassigned) [138-ENT1]	51 to 100	86	98	47	1.14	53.9
